Tested on: tobacco budworm (Heliothis virescens [Fabricius])
Assay: surface-treated diet test against the tobacco budworm
Assay type: in vivo
Conditions: tobacco budworm second instar larvae, surface-treated diet, 0.25 millimoles of candidate insecticide on the surface of the diet, five-day exposure; for Percent Mortality: compared to total number of insects infested; for Percent Growth Inhibition: inhibition of insect weight relative to untreated controls
Procedure, shortened: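 Wheat germ artificial diet surface-treated with 40 µL of 50 mM DMSO stock diluted 1:7 in 1:1 water/acetone (0.25 millimolar on diet), or sub-multiples for rate tests. One second-instar larva per well, 25° C, 60% RH, 5 days; percent weight inhibition vs DMSO controls and percent mortality.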

SMILES | Percent Mortality [%] | Percent Growth Inhibition [%]
CN(C(=O)OC(c1ccc(C(F)(F)F)cc1)C1CCN(Cc2ccc(Oc3ccccn3)cc2)CC1)c1ccccc1 (centres unmarked) [Compound 658] | 0 | 100
O=C(NCc1ccccc1)OC(c1ccc(C(F)(F)F)cc1)C1CCN(Cc2ccc(Oc3ccccn3)cc2)CC1 (centres unmarked) [Compound 659] | 50 | 100
CC(NC(=O)OC(c1ccc(C(F)(F)F)cc1)C1CCN(Cc2ccc(Oc3ccccn3)cc2)CC1)c1ccccc1 (centres unmarked) [Compound 660] | 0 | 98
O=C(Oc1ccccc1)OC(c1ccc(C(F)(F)F)cc1)C1CCN(Cc2ccc(Oc3ccccn3)cc2)CC1 (centres unmarked) [Compound 661] | 0 | 91
O=C(Nc1ccccc1Cl)OC(c1ccc(C(F)(F)F)cc1)C1CCN(Cc2ccc(Oc3ccccn3)cc2)CC1 (centres unmarked) [Compound 662] | 100 | 100
O=C(NCc1ccccc1Cl)OC(c1ccc(C(F)(F)F)cc1)C1CCN(Cc2ccc(Oc3ccccn3)cc2)CC1 (centres unmarked) [Compound 663] | 50 | 100
O=C(Nc1cccc(Cl)c1)OC(c1ccc(C(F)(F)F)cc1)C1CCN(Cc2ccc(Oc3ccccn3)cc2)CC1 (centres unmarked) [Compound 664] | 100 | 100
O=C(Nc1ccc(Cl)cc1)OC(c1ccc(C(F)(F)F)cc1)C1CCN(Cc2ccc(Oc3ccccn3)cc2)CC1 (centres unmarked) [Compound 665] | 0 | 100
O=C(Nc1ccc(Cl)cc1)OC(c1ccc(C(F)(F)F)cc1)C1CCN(Cc2ccc(Oc3ccccn3)cc2)CC1 (centres unmarked) [Compound 666] | 100 | 100
FC(F)(F)c1ccc(C(OC(=S)Nc2ccc(Cl)cc2)C2CCN(Cc3ccc(Oc4ccccn4)cc3)CC2)cc1 (centres unmarked) [Compound 667] | 100 | 100
O=C(NS(=O)(=O)c1ccc(Cl)cc1)OC(c1ccc(C(F)(F)F)cc1)C1CCN(Cc2ccc(Oc3ccccn3)cc2)CC1 (centres unmarked) [Compound 668] | 0 | 25
O=C(Nc1ccc(Cl)cc1)OC(c1ccc(C(F)(F)F)cc1)C1CCN(Cc2ccc(Oc3cccc[n+]3[O-])cc2)CC1 (centres unmarked) [Compound 669] | 100 | 100
N#Cc1cccnc1Oc1ccc(CN2CCC(C(OC(=O)Nc3ccc(Cl)cc3)c3ccc(C(F)(F)F)cc3)CC2)cc1 (centres unmarked) [Compound 670] | 100 | 100
N#Cc1ccc(Oc2ccc(CN3CCC(C(OC(=O)Nc4ccc(Cl)cc4)c4ccc(C(F)(F)F)cc4)CC3)cc2)nc1 (centres unmarked) [Compound 671] | 100 | 100
O=C(Nc1cccc(Br)c1)OC(c1ccc(C(F)(F)F)cc1)C1CCN(Cc2ccc(Oc3ccccn3)cc2)CC1 (centres unmarked) [Compound 672] | 100 | 100
O=C(Nc1ccc(Br)cc1)OC(c1ccc(C(F)(F)F)cc1)C1CCN(Cc2ccc(Oc3ccccn3)cc2)CC1 (centres unmarked) [Compound 673] | 100 | 100
O=C(Nc1cccc(F)c1)OC(c1ccc(C(F)(F)F)cc1)C1CCN(Cc2ccc(Oc3ccccn3)cc2)CC1 (centres unmarked) [Compound 674] | 100 | 100
O=C(Nc1ccc(F)cc1)OC(c1ccc(C(F)(F)F)cc1)C1CCN(Cc2ccc(Oc3ccccn3)cc2)CC1 (centres unmarked) [Compound 675] | 100 | 100
O=C(NCc1ccc(F)cc1)OC(c1ccc(C(F)(F)F)cc1)C1CCN(Cc2ccc(Oc3ccccn3)cc2)CC1 (centres unmarked) [Compound 676] | 100 | 100
O=C(Nc1ccc(I)cc1)OC(c1ccc(C(F)(F)F)cc1)C1CCN(Cc2ccc(Oc3ccccn3)cc2)CC1 (centres unmarked) [Compound 677] | 100 | 100
O=C(NCc1ccc(Cl)cc1Cl)OC(c1ccc(C(F)(F)F)cc1)C1CCN(Cc2ccc(Oc3ccccn3)cc2)CC1 (centres unmarked) [Compound 678] | 100 | 100
O=C(Nc1ccc(F)cc1F)OC(c1ccc(C(F)(F)F)cc1)C1CCN(Cc2ccc(Oc3ccccn3)cc2)CC1 (centres unmarked) [Compound 679] | 100 | 100

SMILES | Percent Mortality [%] | Percent Growth Inhibition [%]
O=C(Nc1cc(F)cc(F)c1)OC(c1ccc(C(F)(F)F)cc1)C1CCN(Cc2ccc(Oc3ccccn3)cc2)CC1 (centres unmarked) [Compound 680] | 17 | 100
Fc1cc(F)cc(NC(=S)OC(c2ccc(C(F)(F)F)cc2)C2CCN(Cc3ccc(Oc4ccccn4)cc3)CC2)c1 (centres unmarked) [Compound 681] | 100 | 100
O=C(Nc1cc(F)cc(F)c1)OC(c1ccc(C(F)(F)F)cc1)C1CCN(Cc2ccc(Oc3cccc[n+]3[O-])cc2)CC1 (centres unmarked) [Compound 682] | 100 | 100
O=C(Nc1cc(F)cc(F)c1)OC(c1ccc(C(F)(F)F)cc1)C1CCN(Cc2ccc(Oc3ncccc3Cl)cc2)CC1 (centres unmarked) [Compound 683] | 100 | 100
O=C(Nc1cc(F)cc(F)c1)OC(c1ccc(C(F)(F)F)cc1)C1CCN(Cc2ccc(Oc3ccc(Cl)cn3)cc2)CC1 (centres unmarked) [Compound 684] | 100 | 100
O=C(Nc1cc(F)cc(F)c1)OC(c1ccc(C(F)(F)F)cc1)C1CCN(Cc2ccc(Oc3cccc(Cl)n3)cc2)CC1 (centres unmarked) [Compound 685] | 100 | 100
O=C(Nc1cc(F)cc(F)c1)OC(c1ccc(C(F)(F)F)cc1)C1CCN(Cc2ccc(Oc3ncc(Cl)cc3Cl)cc2)CC1 (centres unmarked) [Compound 686] | 17 | 98
N#Cc1cccnc1Oc1ccc(CN2CCC(C(OC(=O)Nc3cc(F)cc(F)c3)c3ccc(C(F)(F)F)cc3)CC2)cc1 (centres unmarked) [Compound 687] | 100 | 100
N#Cc1ccc(Oc2ccc(CN3CCC(C(OC(=O)Nc4cc(F)cc(F)c4)c4ccc(C(F)(F)F)cc4)CC3)cc2)nc1 (centres unmarked) [Compound 688] | 100 | 100
O=C(Nc1cc(F)cc(F)c1)OC(c1ccc(C(F)(F)F)cc1)C1CCN(Cc2ccc(Oc3ncccc3C(F)(F)F)cc2)CC1 (centres unmarked) [Compound 689] | 100 | 100
O=C(Nc1cc(F)cc(F)c1)OC(c1ccc(C(F)(F)F)cc1)C1CCN(Cc2ccc(Oc3cc(C(F)(F)F)ccn3)cc2)CC1 (centres unmarked) [Compound 690] | 100 | 100
O=C(Nc1cc(F)cc(F)c1)OC(c1ccc(C(F)(F)F)cc1)C1CCN(Cc2ccc(Oc3ccc(C(F)(F)F)cn3)cc2)CC1 (centres unmarked) [Compound 691] | 100 | 100
FC(F)(F)c1ccc(C(OC(=S)Nc2cccc(C(F)(F)F)c2)C2CCN(Cc3ccc(Oc4ccccn4)cc3)CC2)cc1 (centres unmarked) [Compound 692] | 100 | 100
FC(F)(F)c1ccc(NC(=S)OC(c2ccc(C(F)(F)F)cc2)C2CCN(Cc3ccc(Oc4ccccn4)cc3)CC2)cc1 (centres unmarked) [Compound 693] | 100 | 100
Cc1cccc(CNC(=O)OC(c2ccc(C(F)(F)F)cc2)C2CCN(Cc3ccc(Oc4ccccn4)cc3)CC2)c1 (centres unmarked) [Compound 694] | 50 | 100
Cc1ccc(CNC(=O)OC(c2ccc(C(F)(F)F)cc2)C2CCN(Cc3ccc(Oc4ccccn4)cc3)CC2)cc1 (centres unmarked) [Compound 695] | 100 | 100
Cc1ccc(S(=O)(=O)NC(=O)OC(c2ccc(C(F)(F)F)cc2)C2CCN(Cc3ccc(Oc4ccccn4)cc3)CC2)cc1 (centres unmarked) [Compound 696] | 0 | 32
O=C(Nc1cc(F)c(F)c(F)c1)OC(c1ccc(C(F)(F)F)cc1)C1CCN(Cc2ccc(Oc3ccccn3)cc2)CC1 (centres unmarked) [Compound 697] | 100 | 100
COc1ccc(CNC(=O)OC(c2ccc(C(F)(F)F)cc2)C2CCN(Cc3ccc(Oc4ccccn4)cc3)CC2)cc1 (centres unmarked) [Compound 698] | 100 | 100
COc1ccc(NC(=O)OC(c2ccc(C(F)(F)F)cc2)C2CCN(Cc3ccc(Oc4ccccn4)cc3)CC2)cc1Cl (centres unmarked) [Compound 699] | 100 | 100
COc1ccc(NC(=O)OC(c2ccc(C(F)(F)F)cc2)C2CCN(Cc3ccc(Oc4ccccn4)cc3)CC2)cc1F (centres unmarked) [Compound 700] | 100 | 100
